Source: US20210405025A1, “IDENTIFYING COMPOUNDS FOR TREATING CANCER AND USE THEREOF” (THE UAB RESEARCH FOUNDATION, priority 2018, published 2021)
Where a name gives a salt, the structure may show the parent alone.

tested on: relapsed AML cells; assay: Drug sensitivity assay, 1,536-well, 3-day culture with individual approved drugs at 10 μM, viability by alamarBlue; type: cell-based, human; conditions: number of relapsed AML cases out of 18 tested with >70% cell death; 10 μM, 3-day culture
In short: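 Three-day exposure of primary AML cells to individual drugs in 1,536-well format, viability read as percent live cells. Cells were thawed, cultured overnight, sorted by FACS for viable blasts and plated at 4,000-4,500 cells/5 μL in cytokine-supplemented IMDM/BIT medium.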

Going from `CCNC1=Nc2ccc(Cl)cc2C(C)(c2ccccc2)O1` (stereo not drawn) [ETIFOXINE] to `COc1cccc([C@@H](C)NCCCc2ccccc2Cl)c1` [TECALCET HYDROCHLORIDE], the “#Cases >70% cell death” value falls from 4 to 1.

First: O=C(Nc1ccc(-c2ccnc(Nc3ccc(N4CCOCC4)cc3)n2)cc1)C1CCCN1 (stereo not drawn) [XL019]
Second: N#CCNC(=O)c1ccc(-c2ccnc(Nc3ccc(N4CCOCC4)cc3)n2)cc1 [CYT387]
The “#Cases >70% cell death” value of the first is lower: 3 for the first, 14 for the second.

Going from `C[C@@H](Oc1cc(-c2cnn(C3CCNCC3)c2)cnc1N)c1c(Cl)ccc(F)c1Cl` [CRIZOTINIB] to `COc1cc2ncnc(Nc3ccc(F)c(Cl)c3)c2cc1OCCCN1CCOCC1` [GEFITINIB], the “#Cases >70% cell death” value falls from 10 to 2.

`C[C@H]1O[C@@H](O[C@H]2[C@@H](O)C[C@H](O[C@H]3[C@@H](O)C[C@H](O[C@H]4CC[C@@]5(C)[C@H](CC[C@@H]6[C@@H]5C[C@@H](O)[C@]5(C)[C@@H](C7=CC(=O)OC7)CC[C@]65O)C4)O[C@@H]3C)O[C@@H]2C)C[C@H](O)[C@@H]1O` [DIGOXIN] and `C[C@@H]1O[C@@H](O[C@H]2C[C@@H](O)[C@]3(CO)[C@H]4[C@H](O)C[C@]5(C)[C@@H](C6=CC(=O)OC6)CC[C@]5(O)[C@@H]4CC[C@]3(O)C2)[C@H](O)[C@H](O)[C@H]1O` [OUABAIN] are the same in “#Cases >70% cell death” value: 18 for the first, 18 for the second.

`CC(=O)OCC(=O)[C@@]12OC3(CCCC3)O[C@@H]1C[C@H]1[C@@H]3CCC4=CC(=O)C=C[C@]4(C)[C@@]3(F)[C@@H](O)C[C@@]12C` [AMCINONIDE] and `C[C@H]1C[C@H]2[C@@H]3CCC4=CC(=O)C=C[C@]4(C)[C@@]3(F)[C@@H](O)C[C@]2(C)[C@@]1(O)C(=O)CO` [BETAMETHASONE] are the same in “#Cases >70% cell death” value: 1 for the first, 1 for the second.

`CCN(CC)CCNc1ccc(CO)c2sc3ccccc3c(=O)c12` [HYCANTHONE] and `CCN(CC)CCOc1ccc(Cc2ccccc2)cc1` [TESMILIFENE HYDROCHLORIDE] are the same in “#Cases >70% cell death” value: 9 for the first, 9 for the second.

Going from `Cn1c(=O)c2c(ncn2CC2OCCO2)n(C)c1=O` [DOXOFYLLINE] to `CCn1cc(C(=O)O)c(=O)c2cnc(N3CCCC3)nc21` [PIROMIDIC ACID], the “#Cases >70% cell death” value rises from 1 to 5.

Going from `CC(C)c1cc(C(C)C)c(-c2csc(N(CCN(C)C)Cc3cccnc3)n2)c(C(C)C)c1` [FOROPAFANT] to `Cc1ccc(Nc2nccc(N(C)c3ccc4c(C)n(C)nc4c3)n2)cc1S(N)(=O)=O` [PAZOPANIB], the “#Cases >70% cell death” value falls from 6 to 4.

Compared with `O=C(O)c1ccccc1C(=O)Nc1ccc(S(=O)(=O)Nc2nccs2)cc1` [PHTHALYLSULFATHIAZOLE], `COc1cc(NS(C)(=O)=O)ccc1Nc1c2ccccc2nc2ccccc12` [AMSACRINE] is higher in “#Cases >70% cell death” value: 1 for the first, 4 for the second.

`O=C(Nc1ccccc1Br)N[C@@H]1CCN(c2ccc(C(F)(F)F)cn2)C1` [SB-705498] and `CN1CCC[C@@H]1CCO[C@](C)(c1ccccc1)c1ccc(Cl)cc1` [CLEMASTINE] are the same in “#Cases >70% cell death” value: 1 for the first, 1 for the second.

First: CCc1ccc(CCOc2ccc(CC3SC(=O)NC3=O)cc2)nc1 (stereo not drawn) [PIOGLITAZONE]
Second: COC(=O)Nc1nc2cc(C(=O)c3ccc(F)cc3)ccc2[nH]1 [FLUBENDAZOLE]
The “#Cases >70% cell death” value of the first is higher: 8 for the first, 2 for the second.

Compared with `CC(=O)OC[C@H]1O[C@@H]([S-])[C@H](OC(C)=O)[C@@H](OC(C)=O)[C@@H]1OC(C)=O.CCP(CC)CC.[Au+]` [AURANOFIN], `CCC1=C[C@@H]2CN(C1)Cc1c([nH]c3ccccc13)[C@@](C(=O)OC)(c1cc3c(cc1OC)N(C)[C@H]1[C@@](O)(C(=O)OC)[C@H](OC(C)=O)[C@]4(CC)C=CCN5CC[C@]31[C@@H]54)C2` [VINORELBINE] is lower in “#Cases >70% cell death” value: 17 for the first, 16 for the second.

`C[C@@]1(C(=O)Nc2ccc(F)nc2)CCCN1c1nc(Nc2cc(C3CC3)n[nH]2)c2cccn2n1` [BMS-754807] and `CCOC(=O)C1=C[C@]2(CC)CCCN3CCc4c(n1c1ccccc41)[C@@H]32` [VINPOCETINE] are the same in “#Cases >70% cell death” value: 1 for the first, 1 for the second.

First: CCN(CCCc1ccccc1)CCCc1ccccc1 [ALVERINE CITRATE]
Second: CCCCCCc1ccc(O)cc1O.Nc1c2ccccc2nc2ccccc12 [ACRISORCIN]
The “#Cases >70% cell death” value of the first is lower: 4 for the first, 18 for the second.

Going from `CN(Cc1cc(Br)cc(Br)c1N)C1CCCCC1` [BROMHEXINE] to `Cc1cc(C2CCCCC2)n(O)c(=O)c1` [CICLOPIROX], the “#Cases >70% cell death” value rises from 1 to 14.

Compared with `CCC(COC(=O)c1cc(OC)c(OC)c(OC)c1)(c1ccccc1)N(C)C` (stereo not drawn) [TRIMEBUTINE], `Cc1ccc2c(Br)cc(Br)c(OC(=O)c3ccccc3)c2n1` [BROXALDINE] is higher in “#Cases >70% cell death” value: 1 for the first, 2 for the second.

First: O=C1c2c(O)ccc(O)c2C(=O)c2c(NCCNCCO)ccc(NCCNCCO)c21 [MITOXANTRONE]
Second: Cc1nc2ccc(CN(C)c3ccc(C(=O)N[C@@H](CCC(=O)O)C(=O)O)s3)cc2c(=O)[nH]1 [RALTITREXED]
The “#Cases >70% cell death” value of the first is higher: 18 for the first, 3 for the second.

Going from `c1ccc2c(CCNc3ccc(Nc4ccncc4)cc3)c[nH]c2c1` to `C[C@@H](NCCCc1cccc(C(F)(F)F)c1)c1cccc2ccccc12` [AMG-073 HCL], the “#Cases >70% cell death” value falls from 12 to 1.

Compared with `CC[C@H]1OC(=O)[C@H](C)[C@@H](O[C@H]2C[C@@](C)(OC)[C@@H](O)[C@H](C)O2)[C@H](C)[C@@H](O[C@@H]2O[C@H](C)C[C@H](N(C)C)[C@H]2O)[C@](C)(O)C[C@@H](C)CN(C)[C@H](C)[C@@H](O)[C@]1(C)O` [AZITHROMYCIN], `CC1(C)CC[C@]2(C(=O)O)CC[C@]3(C)[C@H](C(=O)C=C4[C@@]5(C)C=C(C#N)C(=O)C(C)(C)[C@@H]5CC[C@]43C)[C@@H]2C1` [BARDOXOLONE] is higher in “#Cases >70% cell death” value: 1 for the first, 12 for the second.

Going from `OCCN1CCN(CCCN2c3ccccc3Sc3ccc(Cl)cc32)CC1` [PERPHENAZINE] to `O=C1Cc2cc(CCN3CCN(c4nsc5ccccc45)CC3)c(Cl)cc2N1` [ZIPRASIDONE], the “#Cases >70% cell death” value rises from 2 to 3.

`CN(C[C@@H]1COCCO1)S(=O)(=O)Nc1ccc2ccc3ncc(-c4cnn(C)c4)cc3c(=O)c2c1` [MK-2461] and `CCOc1ccc2nc3cc(N)ccc3c(N)c2c1` [ETHACRIDINE LACTATE] are the same in “#Cases >70% cell death” value: 2 for the first, 2 for the second.

First: COc1ccc2nc3cc(Cl)ccc3c(Nc3cc(CN4CCCC4)c(O)c(CN4CCCC4)c3)c2n1.O=P(O)(O)O.O=P(O)(O)O.O=P(O)(O)O.O=P(O)(O)O [PYRONARIDINE TETRAPHOSPHATE]
Second: C#Cc1cccc(Nc2ncnc3cc(OCCOC)c(OCCOC)cc23)c1 [ERLOTINIB]
The “#Cases >70% cell death” value of the first is higher: 9 for the first, 6 for the second.

First: Cc1ccc2nc(N)[nH]c(=O)c2c1Sc1ccncc1 [NOLATREXED DIHYDROCHLORIDE]
Second: CC(=O)Nc1ccc([C@H](C)C(=O)Nc2ncc(C(C)C)s2)cc1 [PHA-690509]
The “#Cases >70% cell death” value of the first is lower: 1 for the first, 11 for the second.

Going from `CC(C)C[C@H](NC(=O)[C@H](CCc1ccccc1)NC(=O)CN1CCOCC1)C(=O)N[C@@H](Cc1ccccc1)C(=O)N[C@@H](CC(C)C)C(=O)[C@@]1(C)CO1` [CARFILZOMIB] to `CCCCCCCCOc1ccccc1C(=O)Nc1ccc(C(=O)OCC[N+](C)(CC)CC)cc1` [OTILONIUM BROMIDE], the “#Cases >70% cell death” value falls from 18 to 4.

First: O=C(NC1CCNCC1)c1[nH]ncc1NC(=O)c1c(Cl)cccc1Cl [AT-7519]
Second: CC(=O)[C@@]1(O)CC[C@H]2[C@@H]3CCC4=CC(=O)CC[C@]4(C)[C@H]3CC[C@@]21C [HYDROXYPROGESTERONE]
The “#Cases >70% cell death” value of the first is higher: 18 for the first, 2 for the second.

With `N[C@@H]1CONC1=O` [D-CYCLOSERINE] the “#Cases >70% cell death” value was 1.
